The values below come from patent US20260265244A1, “HETEROCYCLIC COMPOUNDS AS STING ANTAGONISTS” (Boehringer Ingelheim International GmbH, priority 2022, published 2026).

The target in this experiment is T1, cGAMP binding domain of wild-type (GRR) human STING, residues 155-341 (Homo sapiens, UniProt Q86WV6, H232R).
T1 construct: His-TEV-hSTING (WT); TEV protease cleavage site (N); made in house; host or cells: E. coli BL21 DE3
In words: Increase of stability of STING protein against thermal denaturation, Differential Scanning Fluorimetry (DSF). As to the method: Dye fluorescence is quenched in aqueous environment and increases upon association of the dye with the hydrophobic parts of the unfolding protein. […] The inflection point of the curve represents the “melting” temperature of the protein (Tm) which is calculated numerically using the Boltzmann equation.
Method: The thermal stability of the STING protein was measured using a specific expression construct of the cGAMP binding domain of wild-type (GRR) human STING comprising residues 155-341 and a N-terminal 8×His-tag (SEQ ID NO: 3) in assay buffer containing 20 mM Tris, 150 mM NaCl at pH7.5.
The assay uses Hard-Shell® PCR Plates 384-Well CLR/WHT (Catalog #HSP3805, BIO-RAD), Microseal® ‘B’ Adhesive Seals for PCR Plates (Catalog #MSB-1001, BIO-RAD) and was run on a CFX384 Real-Time System (Bio-Rad).
A DMSO stock solution of SYPRO orange (SIGMA S5692-500UL) was prepared.
Compound stock solutions (10 mM in DMSO) were diluted 1:2 in DMSO to an intermediate compound concentration of 5 mM and then further diluted 1:40 in assay buffer resulting in a compound concentration of 125 μM and 2.5% DMSO.
Fluorescent dye stock solution (5000×SYPRO Orange) was then mixed with target protein and buffer to a concentration of 15 uM Protein and 25×SYPRO Orange. 2 ul of this protein-dye-mixture was added to 8 ul compound solution. Final volume was 10 uL. 3-6 well positions were used as negative control (protein with 2% DMSO). The plates were prepared for duplicate measurement and centrifuged for 2 min at 1000 g. In the measurement, 160 cycles of 0.5° C. were used (temperature ramp 15 s/cycle, 15° C. to 95° C.).
Final Assay concentrations for compound characterization were as follows: 100 uM compound, 3 uM target protein, 5×SYPRO Orange, 2% DMSO in 10 ul. All dispensing steps were performed using a HamiltonStar pipetting robot (Hamilton).
Dissociation curves were processed in Bio-Rad CFX Manager. Peak type was set to “negative”. Compound codes for screen were assigned in the plate layout.
Two replicates of TM measurements were averaged, and the standard deviation was calculated. In cases of SD>1.5° C. the measurement was repeated.
The melting point (Tm) obtained for STING protein alone was subtracted from T obtained for protein incubated with ligand to generate ΔTm values.
Protein production and purification: The protein used for the biophysical experiments was a recombinant human STING protein comprising its cytosolic ectodomain. A codon optimized DNA sequence (for expression in Escherichia coli) encoding amino acid residues 155 to 341 (Swiss Prot Q86WV6) of human STING (WT) was synthesized by GeneArt (Regensburg, Germany) and inserted into a pET17b E. coli expression vector. The protein construct encodes an N-terminal 8×His-tag (SEQ ID NO: 3) followed by tobacco etch virus protease (TEV) cleavage site and the above STING gene sequence. The resulting protein sequence for the used STING variant is listed below:
For expression of recombinant human STING above construct was transformed into E. coli BL21 DE3 strain and grown in shake flasks in LB-medium at 37° C. Expression was induced by addition of isopropyl β-D-1-thiogalactopyranoside to a final concentration of 1 mM and cultures shaken overnight. Cell pellets were centrifuged and stored at −70° C. until further use. Protein was purified by cell thawing in lysis buffer (20 mM TRIS-HCl, pH 8, 300 mM NaCl, 2 mM mercaptoethanol, 20 mM imidazole, Complete Protease Inhibitor (Roche) and DNase (Roche)), followed by metal affinity purification using Ni-NTA resins and elution buffer consisting of 20 mM TRIS-HCl, pH 8, 300 mM NaCl, 2 mM mercaptoethanol, 300 mM imidazole and size exclusion chromatography in running buffer (20 mM TRIS-HCl, pH 8, 100 mM NaCl, 2 mM DTT). The peak fraction was collected and concentrated to 2.5 mg/mL.
(In general: Differential scanning fluorimetry follows unfolding on heating by fluorescence.)

T1 sequence (Q86WV6 with tags, fused parts or gaps H232R): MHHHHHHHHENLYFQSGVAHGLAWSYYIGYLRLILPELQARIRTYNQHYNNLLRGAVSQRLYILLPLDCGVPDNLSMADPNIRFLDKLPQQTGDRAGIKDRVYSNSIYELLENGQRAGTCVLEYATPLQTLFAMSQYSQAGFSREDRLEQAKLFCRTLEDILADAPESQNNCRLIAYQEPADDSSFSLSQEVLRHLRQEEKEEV

Take `Cc1c(C(C)C)c(-c2cccc3nn(C[C@H](O)c4ccccc4)cc23)nn1-c1cc2cn(C)nc2nc1CN(C)C` [Example 112]: the DSF came out at 23 K.

`Cc1nc2nn(CC(F)F)cc2cc1-n1nc(-c2cccc3nn(C[C@H](O)c4ccccc4)cc23)c(C(C)C)c1C` [Example 103, (1R)-2-(4-{1-[2-(2,2-difluoroethyl)-6-methyl-2H-pyrazolo[3,4-b]pyridin-5-yl]-5-methyl-4-(propan-2-yl)-1H-pyrazol-3-yl}-2H-indazol-2-yl)-1-phenylethan-1-ol] registered a DSF of 29 K.

`Cc1nc2nn(C)cc2cc1-n1nc(-c2cccc3nn(C[C@H](O)c4ccccc4)cc23)c(C(C)C)c1C` [Example 102, (1R)-2-[4-(1-{2,6-Dimethyl-2H-pyrazolo[3,4-b]pyridin-5-yl}-5-methyl-4-(propan-2-yl)-1H-pyrazol-3-yl)-2H-indazol-2-yl]-1-phenylethan-1-ol] had a DSF of 28 K.

Consider `Cn1c(-c2cc3cn(CCC#N)nc3nc2C2CC2)nc(-c2cccc3nn(C[C@H](O)c4ccccc4)cc23)c1C1CC1` [Example 104, 3-[6-cyclopropyl-5-(5-cyclopropyl-4-{2-[(2R)-2-hydroxy-2-phenylethyl]-2H-indazol-4-yl}-1-methyl-1H-imidazol-2-yl)-2H-pyrazolo[3,4-b]pyridin-2-yl]propanenitrile], for which the DSF is recorded as 31 K.

For the compound `Cc1nc2nn(C3CCOC3)cc2cc1-n1nc(-c2cccc3nn(C[C@H](O)c4ccccc4)cc23)c(C(C)C)c1C` (stereo partly drawn) [Example 14, (1R)-2-(4-{5-methyl-1-[6-methyl-2-(oxolan-3-yl)-2H-pyrazolo[3,4-b]pyridin-5-yl]-4-(propan-2-yl)-1H-pyrazol-3-yl}-2H-indazol-2-yl)-1-phenylethan-1-ol], the DSF was 28 K.

The compound `CCn1cc2cc(-n3nc(-c4cccc5nn(C[C@H](O)c6ccccc6)cc45)c(C(C)C)c3C)c(C)nc2n1` [Example 100, (1R)-2-[4-(1-{2-ethyl-6-methyl-2H-pyrazolo[3,4-b]pyridin-5-yl}-5-methyl-4-(propan-2-yl)-1H-pyrazol-3-yl)-2H-indazol-2-yl]-1-phenylethan-1-ol] showed a DSF of 28 K.

In turn, `Cc1c(C(C)C)c(-c2cccc3nn(C[C@H](O)c4ccccc4)cc23)nn1-c1cc2cn(C)nc2[n+]([O-])c1C1CC1` [Example 50, 6-cyclopropyl-5-(3-{2-[(2R)-2-hydroxy-2-phenylethyl]-2H-indazol-4-yl}-5-methyl-4-(propan-2-yl)-1H-pyrazol-1-yl)-2-methyl-2H-pyrazolo[3,4-b]pyridin-7-ium-7-olate] displayed a DSF of 26 K.

In the case of `CC(C)c1c(-c2cccc3nn(C[C@H](O)c4ccccc4)cc23)nc(-c2cc3cn(C)nc3nc2C(F)(F)F)n1C` [Example 57, (1R)-2-(4-{1-methyl-2-[2-methyl-6-(trifluoromethyl)-2H-pyrazolo[3,4-b]pyridin-5-yl]-5-(propan-2-yl)-1H-imidazol-4-yl}-2H-indazol-2-yl)-1-phenylethan-1-ol], the DSF is on record as 27 K.

`CCc1nc2nn(C)cc2cc1-c1nc(-c2cccc3nn(C[C@H](F)c4ccccc4)cc23)c(C2CC2)n1C` [Example 107, 4-(5-cyclopropyl-2-{6-ethyl-2-methyl-2H-pyrazolo[3,4-b]pyridin-5-yl}-1-methyl-1H-imidazol-4-yl)-2-[(2R)-2-fluoro-2-phenylethyl]-2H-indazole] yielded a DSF of 31 K.

The compound `Cc1nc2nn(CC(O)CN3CCN(C)CC3)cc2cc1-n1nc(-c2cccc3nn(C[C@H](O)c4ccccc4)cc23)c(C(C)C)c1C` (stereo partly drawn) [Example 70, 1-[5-(3-{2-[(2R)-2-hydroxy-2-phenylethyl]-2H-indazol-4-yl}-5-methyl-4-(propan-2-yl)-1H-pyrazol-1-yl)-6-methyl-2H-pyrazolo[3,4-b]pyridin-2-yl]-3-(4-methylpiperazin-1-yl)propan-2-ol] gave a DSF of 24 K.
